Reference: patent publication US8877746B2, “Compositions for delivery of insoluble agents” (Cardioklne, Inc, priority 2009, dated 2014)
In brackets after ≈: the same amount, converted by molar mass.

Legend:
[1] = Solubility in 1.5% SDS at 25° C.; format: physicochemical
[2] = Solubility of lixivaptan in water; format: physicochemical
Description: Lixivaptan is very poorly soluble in water (less than 20 ng/mL). Salt formation (a frequently used approach to increase aqueous solubility) was not possible. The bioavailability of lixivaptan can be extremely low in conventional dosage forms (i.e., when blended with excipients and compressed into tablets or filled into capsules).

Solubility (mg/mL in 1.5% SDS, 25° C.) 1 h ([1]; 1 h): 0.019 mg/mL (≈ 40.1 µM)
solubility at 24 h ([1]; aqueous with cosolvent or surfactant or cyclodextrin, 24 h, read-out: Solubility (mg/mL in 1.5% SDS, 25° C.) 24 h): 0.024 mg/mL (≈ 50.6 µM)
solubility [2]: < 0.02 µg/mL
Structure (SMILES): Cc1ccc(F)cc1C(=O)Nc1ccc(C(=O)N2Cc3cccn3Cc3ccccc32)c(Cl)c1 [Lixivaptan, 5-fluoro-2-methyl-N-[4-(5H-pyrrolo[2,1-c]-[1,4]-benzodiazepin-10(11H)-ylcarbonyl)-3-chlorophenyl]benzamide]
